From patent US20240228493A1, “LRRK2 INHIBITORS AND USES THEREOF” (NEURON23, ICN., priority 2022, published 2024)

Columns and labels:
human hepatocyte = test: Human hepatocyte stability, predicted hepatic clearance (h-Hept CL predict); type: in vitro ADME; conditions: human hepatocytes, 0.5×10^6 cells/mL, 1 μM, values without asterisk
Experimental: The compounds disclosed herein were tested in vitro on human hepatocyte for in vitro h-Hept CL predict according to the following procedures. • 1. Compound sock solutions were prepared by dissolving test compound and positive control in dimethyl sulfoxide (DMSO) at a concentration of 10 mM. Stock solutions were then diluted to 100 μM solutions by combining 198 μL of 50% acetonitrile/50% water with 2 μL of the 10 mM stock in separate conical tubes. • 2. Cryopreserved hepatocytes were prepared as follows: Incubation medium (William's E Medium supplemented with GlutaMAX) and hepatocyte thawing medium were placed in a 37° C. water bath and allowed to warm for at least 15 minutes prior to use. Cryopreserved hepatocytes were removed from storage, ensuring that vials remained at cryogenic temperatures until thawed. Cells were thawed by placing the vials in a 37° C. water bath and gently shaking the vials for 2 minutes. After thawing was completed, vials were sprayed with 70% ethanol and transferred to a biosafety cabinet. Hepatocytes were transferred into 50 mL conical tube containing thawing medium using wide-bore pipette tips. Tubes were placed into a centrifuge and spun at 100 g for 10 minutes. Then thawing medium was aspirated and hepatocytes were resuspended in enough incubation medium to yield ˜1.5×10^6 cells/mL. Cells were counted using acridine orange and propidium iodide (AO/PI) staining, and the viable cell density was determined. Cells were diluted with incubation medium to a working cell density of 0.5×10^6 viable cells/mL. • 3. To determine hepatocyte stability, 198 μL of hepatocytes were transferred into each well of a 96-well non-coated plate. Plates were placed in an incubator to allow the hepatocytes to warm for 10 minutes. • 4. The reaction was started by transferring 2 μL of the 100 μM test compound or positive control solution into respective wells of the 96-well non-coated plates. Plates were returned to the incubator until 25 μL aliquots of well contents were sampled at time points of 0, 15, 30, 60, 90 and 120 minutes. The aliquots were then mixed with 6 volumes (150 μL) of acetonitrile containing internal standard, IS (100 nM alprazolam, 200 nM caffeine and 100 nM tolbutamide) to terminate the reaction and vortexed for 5 minutes. After centrifuging the samples for 45 minutes at 3,220 g, aliquots of 100 μL of the supernatant were taken and diluted with 100 μL of ultra-pure water. The mixture was used for LC/MS/MS analysis. All incubations were performed in duplicate.
All calculations were carried out using Microsoft Excel. Peak area ratios (PAR) were determined from extracted ion chromatograms. The in vitro half-life (t1/2) of parent compound was determined by regression analysis of the percent parent disappearance vs. time curve as follows:
Conversion of the in vitro t1/2 (in minutes) into the in vitro intrinsic clearance (in vitro CLint, in μL/min/1×10^6 cells) was done using the following equation (mean of duplicate determinations): […]
The scaled-up intrinsic clearance (CLint, mL/min/kg), predicted hepatic clearance (CLH, mL/min/kg) and hepatic extraction ratio (ER) were calculated using the following equations:
CLint=(0.693/t1/2)*(1/(hepatocyte concentration (0.5*10^6 cells/mL)))*scaling factors (Table (A) Appendix Table 1)
CLHept-predict=(QH*Scaled-up CLint*fub)/(QH+Scaled-up CLint*fub)
ER=CLH/QH • Where: • V=incubation volume (0.2 mL) • N=number of hepatocytes per well (0.1*10^6 cells) • QH=hepatic blood flow (mL/min/kg) (Table (A) Appendix Table 1) • fub=fraction of unbound drug in plasma, assumed to be 1

[1] = molecular target: T1, wt human LRRK2, catalytic site (Homo sapiens, UniProt Q5S007); test: TR-FRET LanthaScreen Tb Kinase Activity Assay, LRRK2 inhibition; type: biochemical; conditions: 2 nM wt human LRRK2, 400 nM peptide, 38 μM ATP
T1 construct: wt human LRRK2, catalytic site, catalytic site (ThermoFisher/USA); purchased ThermoFisher
Experimental: The compounds disclosed herein were tested for their inhibitory effect on LRRK2 kinase according to the following procedures.
The protocol for basic TR-FRET LanthaScreen Tb Kinase Activity Assay inhibitor studies were as follows. LanthaScreen Kinase Activity Assays (ThermoFisher/USA) to evaluate inhibitors were performed by addition of 100 nL of test compound in corresponding DMSO dilutions/5 μL of kinase/fluorescein-ERM (LRRKtide) peptide mixture, Compound & kinase were pre-incubated for 15 minutes, then 5 μl of ATP into 384 well small volume plates. After incubation for 120 minutes at room temperature, the detection reagents containing Tb-anti-pLRRKtide antibody were added to monitor phosphorylation level of peptide. Then, after 60 min minutes incubation at room temperature plates were read in Envision. Data analysis of emission ratios was according to LanthaScreen Tb Kinase Activity Assay protocol.
Kinase and assay components were adjusted to final concentrations according to the kit protocol. For LRRK2: 2 nM wt human LRRK2, catalytic site, catalytic site (ThermoFisher/USA), 400 nM peptide, 38 μM ATP in 1× Kinase Buffer A. […]
Kinase and assay components were adjusted to final concentrations according to the kit protocol.

Caco-2 cells = test: Caco-2 bidirectional permeability; type: in vitro ADME; conditions: for Caco-2 ER: Efflux Ratio=Papp(BA)/Papp(AB); for Caco-2 A2B (10^−6 cm/s): apical to basolateral; for Caco-2 A2B (10^−6 cm/s) / Caco-2 B2A (10^−6 cm/s): 2 hours, pH 7.4; for Caco-2 B2A (10^−6 cm/s): basolateral to apical
Experimental: The compounds disclosed herein were tested in vitro on CaCo2 cell penetration according to the following procedures.
Caco-2 cells purchased from ATCC were seeded onto […] (PET) in 96-well Corning Insert plates at 1×10^5 cells/cm^2. The media were refreshed every 4 to 5 days until the 21st to 28th day for confluent cell monolayer formation.
Experiments were run in duplicate using a HBSS transport buffer containing 10 mM HEPES at pH 7.4. The test article TEST COMPOUND was tested bi-directionally at […] concentrations, the control compound digoxin was tested bi-directionally at 10 μM, and nadolol and metoprolol were tested at 2.0 μM in the A to B direction. Final DMSO concentrations were adjusted to less than 1%. The plates were incubated for 2 hours in a CO2 incubator at 37±1° C. with 5% CO2 at saturated humidity without shaking. Following incubation, samples were mixed with acetonitrile containing internal standard and centrifuged at 3200×g for 10 minutes. Then 200 μL of supernatant was taken from all samples. For TEST COMPOUND and digoxin, the supernatant was diluted with 200 μL of ultra-pure water and for nadolol and metoprolol, the supernatant was diluted with 600 μL of ultra-pure water. All samples were analyzed by LC-MS/MS. Concentrations of TEST COMPOUND and control compounds were determined in starting solutions, donor well solutions, and receiver well solutions using peak area ratios (PAR) of analyte to internal standard. After the transport assay, a lucifer yellow rejection assay was run to determine the Caco-2 cell monolayer integrity.
The apparent permeability (Papp), the % recovery and the efflux ratio were calculated as follows:
Papp=(dCr/dt)×Vr/(A×C0) 1.
Efflux Ratio=Papp(BA)/Papp(AB) 3. • Where: • dCr/dt is the slope of the cumulative concentration in the receiver compartment versus time (mM/s). • Vr and Vd is the volume in the receiver and donor compartments (0.075 mL on the apical side, 0.25 mL on the basolateral side), respectively. • A is the surface area of the cell monolayer (0.0804 cm^2). • C0 is the measured donor concentrations (μM) at the beginning of the experiment. • Cd and Cr are the final measured concentrations in the donor and receiver compartments, respectively.

T1 sequence (Q5S007 1879-2138 limits assumed): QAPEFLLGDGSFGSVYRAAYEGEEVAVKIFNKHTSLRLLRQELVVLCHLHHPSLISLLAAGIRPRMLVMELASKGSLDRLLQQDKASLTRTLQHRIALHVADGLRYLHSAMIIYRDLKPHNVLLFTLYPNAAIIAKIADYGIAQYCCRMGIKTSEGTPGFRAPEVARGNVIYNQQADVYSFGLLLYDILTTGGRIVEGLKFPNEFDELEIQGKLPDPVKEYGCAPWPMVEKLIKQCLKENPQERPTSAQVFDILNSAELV

Structure (SMILES)	hHep Cl (mL/min/kg) (human hepatocyte)	IC50 [1] [nM]	Caco-2 ER (Caco-2 cells)	Caco-2 A2B (10^−6 cm/s) (Caco-2 cells)	Caco-2 B2A (10^−6 cm/s) (Caco-2 cells)
Cc1n[nH]c2c1N=C(c1c(F)cccc1F)Nc1cnc(N3CCO[C@@]4(CCOC4)C3)cc1-2 (single isomer, unassigned) [Example 3]	L (L (Low Cl)”: Hep Cl (mL/min/kg)<6.3)	< 1	L (L (Likely)”: ER≥2.5)	M (M (Moderate permeability)”: 1≤A2B (B2A)≤5)	H (H (High permeability)”: A2B (B2A)>5)
Cc1n[nH]c2c1N=C(c1c(F)cccc1F)Nc1cnc(N3CCO[C@]4(CCOC4)C3)cc1-2 (single isomer, unassigned) [Example 4]	L (L (Low Cl)”: Hep Cl (mL/min/kg)<6.3)	< 1	L (L (Likely)”: ER≥2.5)	M (M (Moderate permeability)”: 1≤A2B (B2A)≤5)	H (H (High permeability)”: A2B (B2A)>5)
Cc1n[nH]c2c1N=C(c1c(F)cccc1F)Nc1cnc(N3CCC[C@](C)(C#N)C3)cc1-2 (single isomer, unassigned) [Example 13]	I (I (Intermediate Cl)”: 6.3≤Hep Cl (mL/min/kg)≤14.7)	< 1	L (L (Likely)”: ER≥2.5)	M (M (Moderate permeability)”: 1≤A2B (B2A)≤5)	H (H (High permeability)”: A2B (B2A)>5)
Cc1n[nH]c2c1N=C(c1c(F)cccc1F)Nc1cnc(N3CCN(CCF)CC3)cc1-2 [Example 1, 8-(2,6-difluorophenyl)-13-[4-(2-fluoroethyl)piperazin-1-y1]-5-methyl-3,4,7,9,12-pentazatricyclo[8.4.0.02,6]tetradeca-1(10),2(6),4,7,11,13-hexaene]	I (I (Intermediate Cl)”: 6.3≤Hep Cl (mL/min/kg)≤14.7)	< 1	L (L (Likely)”: ER≥2.5)	M (M (Moderate permeability)”: 1≤A2B (B2A)≤5)	H (H (High permeability)”: A2B (B2A)>5)
Cc1n[nH]c2c1N=C(c1c(F)cccc1F)Nc1cnc(N3CCOC4(COC4)C3)cc1-2 [Example 5, 8-[8-(2,6-difluorophenyl)-5-methyl-3,4,7,9,12-pentazatricyclo[8.4.0.02,6]tetradeca-1(10),2(6),4,7,11,13-hexaen-13-y1]-2,5-dioxa-8-azaspiro[3.5]nonane]	L (L (Low Cl)”: Hep Cl (mL/min/kg)<6.3)	< 1	L (L (Likely)”: ER≥2.5)	L (L (Low permeability)”: A2B (B2A)<1)	H (H (High permeability)”: A2B (B2A)>5)
Cc1n[nH]c2c1N=C(c1c(F)cccc1F)Nc1cnc(N3CCNC4(COC4)C3)cc1-2 [Example 7, 8-[8-(2,6-difluorophenyl)-5-methyl-3,4,7,9,12-pentazatricyclo[8.4.0.02,6]tetradeca-1(10),2(6),4,7,11,13-hexaen-13-y1]-2-oxa-5,8-diazaspiro[3.5]nonane]	L (L (Low Cl)”: Hep Cl (mL/min/kg)<6.3)	< 1	L (L (Likely)”: ER≥2.5)	L (L (Low permeability)”: A2B (B2A)<1)	H (H (High permeability)”: A2B (B2A)>5)
Cc1n[nH]c2c1N=C(c1c(F)cccc1F)Nc1cnc(N3CCN(C)CC3)cc1-2 [Example 8, 8-(2,6-difluorophenyl)-5-methyl-13-(4-methylpiperazin-1-y1)-3,4,7,9,12-pentazatricyclo[8.4.0.02,6]tetradeca-1(10),2(6),4,7,11,13-hexaene]	L (L (Low Cl)”: Hep Cl (mL/min/kg)<6.3)	< 1	L (L (Likely)”: ER≥2.5)	M (M (Moderate permeability)”: 1≤A2B (B2A)≤5)	H (H (High permeability)”: A2B (B2A)>5)
Cc1n[nH]c2c1N=C(c1c(F)cccc1F)Nc1cnc(N3CCCOCC3)cc1-2 [Example 9, 4-[8-(2,6-difluorophenyl)-5-methyl-3,4,7,9,12-pentazatricyclo[8.4.0.02,6]tetradeca-1(10),2(6),4,7,11,13-hexaen-13-y1]-1,4-oxazepane]	L (L (Low Cl)”: Hep Cl (mL/min/kg)<6.3)	1 to 100	L (L (Likely)”: ER≥2.5)	M (M (Moderate permeability)”: 1≤A2B (B2A)≤5)	H (H (High permeability)”: A2B (B2A)>5)
Cc1n[nH]c2c1N=C(c1c(F)cccc1F)Nc1cnc(N3CCNCC3)cc1-2 [Example 10, 8-(2,6-difluorophenyl)-5-methyl-13-piperazin-1-yl-3,4,7,9,12-pentazatricyclo[8.4.0.02,6]tetradeca-1(10),2(6),4,7,11,13-hexaene]	L (L (Low Cl)”: Hep Cl (mL/min/kg)<6.3)	1 to 100	L (L (Likely)”: ER≥2.5)	L (L (Low permeability)”: A2B (B2A)<1)	H (H (High permeability)”: A2B (B2A)>5)
